Laboratory results: publication PMC7549214 (Malaria Journal, 2020)
Where two headings read alike, the source gives them in different places.

Key:
Microsomal stability = type: in vitro ADME, rat; details: RLM, Test Conc. 10 µM
[1] = tested on: Plasmodium falciparum strain 3D7; assay: In vitro killing profile; type: cell-based; details: 10 × IC50
Experimental: Briefly, the assay used limiting dilution technique to quantify the number of parasites viable after drug treatment. […] Parasites were treated for […]. The drugs used were renewed daily over the entire treatment period. Samples of parasites were taken from the treated culture every 24 h (0, for control of the initial number of parasites, 24, 48, 72, 96, 120 h’ time points). Following this, the procedure was carried out to wash out the drugs, and drug-free parasites were cultured in 96-well plates by adding fresh erythrocytes and new media (RPMI 1640 medium). Three-fold serial dilution was used with the abovementioned samples after removing the drug to quantify the number of viable parasites after treatment. Parasites were cultured in microtitre plates to allow all wells with viable parasites to render detectable parasitaemia. Four independent serial dilutions were carried out with each sample to correct experimental variations. Samples were examined after 21 days of culturing. Additional sampling was done after 28 days to confirm the growth/no growth.

Cam3.I (MRA1240) = assay: microbe, parasite or virus in culture; type: cell-based; details: Plasmodium falciparum
[2] = Single dose pharmacokinetics in Balb/C mice; type: in vivo; details: normal Balb/C mice; for half-life / AUC(0-t) / Cmax / Tmax: male, mouse, plasma; for half-life: BALB/c, 50 mg/kg
Experimental: Female […] mice (n = 3) aged 7-8 weeks and weighing around 20 to 22 g were used for experimentation after a minimum 7 days of acclimation. Male BALB/c mice (n = 3) aged 8-10 weeks and weighing around 20 to 22 g were also used for experimentation after a minimum 7 days of acclimation. […] Feed was offered 2 h post-dose. Under mild isofluorane […], blood samples were collected by retro-orbital route into labelled centrifuge tubes containing K2EDTA anticoagulant at a concentration of 2 mg/mL of blood during the next 24 h post-dose. Collected blood samples were centrifuged at 4000 rpm for 10 min, and harvested plasma samples were stored at - 80 °C until analysis.

in vitro [3] = type: in vitro ADME; details: rat, plasma
Plasma protein binding [4] = type: in vitro ADME; details: dog, read-out: Plasma protein binding (% bound)
female gametocytes = assay: Female gametocyte functional viability assay; type: cell-based; details: Plasmodium falciparum
[5] = tested on: P. falciparum Pf3D7^0087/N9; assay: Therapeutic efficacy in SCID mouse model of human falciparum malaria; type: in vivo, Plasmodium falciparum in NODscidIL2Rγ^null mice; details: for Parasitaemia after 4 days of administration: intraperitoneally, vehicle control 8.43%; for Parasitaemia: oral, vehicle-treated group 7.69%, n = 2
Experimental: For the dose–response study, 50 mg of the compound was used in quintuplicate. Chloroquine (Sigma-Aldrich C6628) was used as the standard drug. The volume of 10 mL/kg was used for administration. Briefly, at day 0, in vitro cultures with approximately 2–5% parasitaemia were taken and diluted in culture medium to 2 × 10^7 parasitized erythrocytes per 0.1 ml. This suspension was injected iv into experimental groups and a control group of n = 2 mice. From day 3 to 6 days post-infection, the experimental groups were treated with a single daily dose by the oral (po) route. Other routes, such as intramuscular and subcutaneous, were also tested using the same protocol. The drug concentration was adjusted in a way to administer 10 ml/kg. […] At 7th day post-infection, 2 μl tail blood was taken. The haematocrit was determined by FACS and parasitaemia by microscopy on > 10,000 red blood cells.
The difference of the mean infection rate of the control group (= 100%) to the test group was calculated and expressed as per cent reduction. […] The results were expressed as a reduction of parasitaemia at day 7 in % as compared to the untreated control group. Values are expressed as mean ± SD.

HepG2 = assay: Cytotoxicity; type: cell-based
Dd2 = assay: microbe, parasite or virus in culture; type: cell-based; details: Plasmodium falciparum
CYP2C9 = CYP2C9 (Homo sapiens, UniProt P11712); assay: CYP inhibition; type: in vitro ADME; details: read-out: CYP inhibition IC50, CYP 2C9
Chain of CYP2C9 (P11712 whole entry, species assumed): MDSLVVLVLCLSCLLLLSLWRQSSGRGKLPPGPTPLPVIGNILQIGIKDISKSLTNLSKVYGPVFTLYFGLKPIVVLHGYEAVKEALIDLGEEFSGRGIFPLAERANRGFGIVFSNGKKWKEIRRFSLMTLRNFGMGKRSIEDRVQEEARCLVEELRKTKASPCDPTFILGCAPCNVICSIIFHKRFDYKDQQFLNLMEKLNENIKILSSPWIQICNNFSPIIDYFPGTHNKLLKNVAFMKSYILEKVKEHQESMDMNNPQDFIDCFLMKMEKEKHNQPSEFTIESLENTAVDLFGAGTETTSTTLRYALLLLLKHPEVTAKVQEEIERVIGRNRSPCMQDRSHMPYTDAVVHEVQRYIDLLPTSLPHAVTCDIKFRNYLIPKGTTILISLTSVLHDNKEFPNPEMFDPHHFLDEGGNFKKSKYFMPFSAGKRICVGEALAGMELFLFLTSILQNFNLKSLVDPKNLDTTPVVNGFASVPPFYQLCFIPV

[6] = tested on: Plasmodium falciparum 3D7; assay: Plasmodium falciparum asexual blood-stage (ABS) assay; type: cell-based; details: Plasmodium falciparum, 3D7
Experimental: Plasmodium falciparum 3D7 strain was used for the P. falciparum asexual blood-stage (ABS) assay, for which the cells were resuscitated from the stabilate and maintained at 5% haematocrit. Red blood cells obtained from the hospital were used to maintain the culture at 1% parasitaemia while screening.
Plasmodium falciparum 3D7 cells were used as a target strain for the assay. Mefloquine (Sigma-Aldrich) was used as a standard inhibitor. At day 1, […] of 10 mM mefloquine was added to columns 12 and 24 of the sterile 384-well black, clear-bottom, cell culture assay plates followed by compound curves which were added using Echo. The P. falciparum 3D7 cells were counted and 20 ml of culture was prepared at 5% haematocrit, 0.3% parasitaemia (as one batch, i.e., 12 plates, prepare 260 ml, to allow for WellMate prime volume) for each plate. From this, 50 µl of culture was added to all wells on all plates using WellMate with small bore tubing on full (S-1) speed. The plates were placed on the bottom shelf of the incubator, with a maximum stack height of 4 plates, preferring the front of the shelf and were incubated for 72 h at 37 °C in an atmosphere of special gas mix (1% O2, 3% CO2, balance N2).
. Ten μl of the prepared buffer was added to each well on each of the assay plates and incubated overnight in the dark at room temperature. The plates were read on Victor plate reader using ‘384sybrgreen’ protocol (excitation 485 nm, emission 528 nm) after which the plate contents were aspirated into 5% Virkon, and disposed of after autoclaving. Percentage inhibition for each test compound was calculated using the following equation: %Inhibition=100-TEST COMPOUND-BLANK/NO INHIBITION-BLANK∗100)
EC50 values for standard inhibitors were determined using non-linear regression curve-fitting within Activity Base data analysis template.

in vitro [7] = type: in vitro ADME; details: human, plasma
Plasma protein binding [8] = type: in vitro ADME; details: human
Plasma protein binding [9] = type: in vitro ADME; details: monkey, read-out: Plasma protein binding (% bound)

Compound: O=C(NO)c1ccc(Cn2cc(-c3ccc(CN4CCCC4)cc3)nn2)cc1 [FNDR-20123]
- Microsomal stability (% remaining at 120 min) (Microsomal stability): 74.56%
- remaining at 2 h, 10 µM (Microsomal stability; rat, liver microsomes, read-out: Microsomal stability (% remaining at 120 min)): > 75%
- In vitro killing profile compared with standard drugs [1]: better than atovaquone and comparable to pyrimethamine
- IC50 (Cam3.I (MRA1240)): 22.1 nM
- half-life ([2]; im, intramuscular): 8.72 h
- half-life ([2]; po): 2 h
- half-life ([2]; sc, subcutaneous): 9.21 h
- AUC(0-t) ([2]; im, intramuscular, 50 mg/Kg): 7220 ng·h/mL
- Cmax ([2]; im, intramuscular, 50 mg/Kg): 15700 ng/mL
- Tmax ([2]; im, intramuscular, 50 mg/Kg): 0.08 h
- AUC(0-t) ([2]; sc, subcutaneous, 50 mg/Kg): 11000 ng·h/mL
- Cmax ([2]; sc, subcutaneous, 50 mg/Kg): 14000 ng/mL
- Tmax ([2]; sc, subcutaneous, 50 mg/Kg): 0.08 h
- AUC(0-t) ([2]; oral, 50 mg/Kg): 327 ng·h/mL
- Cmax ([2]; oral, 50 mg/Kg): 184 ng/mL
- Tmax ([2]; oral, 50 mg/Kg): 1 h
- t1/2 ([2]; oral, 50 mg/Kg): 2.02 h
- remaining at 4 h (in vitro [3]): 88.9%
- fraction unbound (Plasma protein binding [4]): > 0.8
- IC50 (female gametocytes): > 5000 nM
- Reduction of parasitaemia ([5]; dosed orally and subcutaneously): reduce parasitaemia significantly
- Parasitaemia after 4 days of administration ([5]; 50 mg/kg bw): 0.12%
- Parasitaemia after 4 days of administration ([5]; 100 mg/kg bw): 0.19%
- Parasitaemia ([5]; 10 mg/kg bw for 4 days): 6.5%
- Parasitaemia ([5]; 50 mg/kg bw for 4 days): 2.57%
- Cytotoxicity to HepG-2 cell line (HepG2): negligible cytotoxicity
- Cytotoxicity HepG2 (% @ 100 µM) (HepG2; 100 µM): 12.6%
- IC50 (Dd2): 17.5 nM
- IC50 (CYP2C9): > 60000 nM
- IC50 ([6]; read-out: Anti-malarial IC50): 40 nM
- IC50 ([6]; read-out: Anti-malarial activity Asexual Blood Stage IC50): 42 nM
- remaining at 4 h (in vitro [7]): 98.9%
- Plasma protein binding (% bound) (Plasma protein binding [8]): 57.30%
- fraction unbound (Plasma protein binding [8]; plasma, Human, read-out: Plasma protein binding (% bound) (converted)): 0.43
- fraction unbound (Plasma protein binding [9]): > 0.8
